Measured values as given in US20130065964A1, “PERITONEAL DIALYSIS SOLUTION” (UNIVERSIDAD DE CASTILLA LA MANCHA, priority 2010, published 2013).

Tested on: Collagen III
Test: Real-time RT-PCR in cultured PMCs exposed to PDF
Type: cell-based
Details: rat PMCs, 1.5% PDF diluted 1:1 in culture medium, 24 hours, aliskiren 10-100 μM, FIG. 10
Protocol: After incubating the rat PMCs in 1.5% PDF diluted 1:1 in culture medium for 24 hours, in the presence or absence of aliskiren (10-100 μM), total RNA was isolated and real-time RT-PCR was carried out as described in Material and Methods. The data is expressed as mean±SEM, n=3. * p<0.05 compared to untreated cells (control). # p<0.05, compared to cells treated with 1.5% PDF in the presence of carrier (0).
Rat peritoneal mesothelial cells were isolated by enzymatic digestion in accordance with protocols described in Hjelle J T, Golinska B T, Waters D C, et al. Perit Dial Int 1989; 9: 341-7. Briefly, female rats weighing 200-400 g of the Spragle-Dawley strain were sacrificed pursuant to Royal Decree 1201/2005, of 10 Oct., on protection of animals used for experimental and other scientific purposes. […]
The RNA expression was evaluated by real-time RT-PCR in PMCs. […] RNA quality and concentration was evaluated by spectrophotometry (Infinite 200, Tecan, Salzburg, Austria) using 1 μl of the RNA sample. […] The dissociation curves were analysed to confirm the amplification of a single PCR product. […] In each experiment, the mean cycle threshold (CT) was calculated from triplicates for each of the genes studied, enabling comparison of the gene expression after different treatments (Methods 25, 402-408 (2001). In order to normalize the data, the gene expression of β-actin was used as endogenous control.

Structure (SMILES): COCCCOc1cc(C[C@@H](C[C@H](N)[C@@H](O)C[C@H](C(=O)NCC(C)(C)C(N)=O)C(C)C)C(C)C)ccc1OC [aliskiren]
- RNAm levels for collagen III: lowered
